How the values were obtained:
Echinochloa crusgalli = test: Post-emergence herbicidal activity test (stem and leaf spray, pot culture); assay type: in vivo; settings: 3 weeks after spraying
Procedure, shortened: (§1)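 Read-out: fresh weight control rate 3 weeks post-spray, graded 5 (≥85%) down to 0 (<5%). Foliar spray at 2–3-leaf stage; rates 10, 5, 2.5 g/mu; acetone + Tween 80 formulation with methyl oleate synergist; greenhouse 20–30 °C, natural light.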

Portulaca oleracea = test: as above; assay type: in vivo; settings: 3 weeks after spraying
Procedure, shortened: as §1

Amaranthus retroflexus = test: as above; assay type: in vivo; settings: 3 weeks after spraying
Procedure, shortened: as §1

Setaria viridis = test: as above; assay type: in vivo; settings: 3 weeks after spraying
Procedure, shortened: as §1

Abutilon theophrasti = test: as above; assay type: in vivo; settings: 3 weeks after spraying
Procedure, shortened: as §1

Trifoliumre pensL. = test: as above; assay type: in vivo; settings: 3 weeks after spraying
Procedure, shortened: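 Pot-grown weeds in loam (pH 7), greenhouse at 20–30 °C, sprayed once post-emergence at the 2–3-leaf stage. Compound in acetone with Tween 80 plus methyl oleate oil (1.5 L/ha), applied at 10, 5 and 2.5 g/mu by spray tower. Effect scored 3 weeks after spraying, averaged over three repeats.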

Row | Structure (SMILES) | Post-emergence herbicidal activity, E. crusgalli (grade) (Echinochloa crusgalli; dosage 2.5 g/mu) | Post-emergence herbicidal activity, E. crusgalli (grade) (Echinochloa crusgalli; dosage 5 g/mu) | Post-emergence herbicidal activity, E. crusgalli (grade) (Echinochloa crusgalli; dosage 10 g/mu) | Post-emergence herbicidal activity, P. oleracea (grade) (Portulaca oleracea; dosage 2.5 g/mu) | Post-emergence herbicidal activity, P. oleracea (grade) (Portulaca oleracea; dosage 5 g/mu) | Post-emergence herbicidal activity, P. oleracea (grade) (Portulaca oleracea; dosage 10 g/mu) | Post-emergence herbicidal activity, A. retroflexus (grade) (Amaranthus retroflexus; dosage 2.5 g/mu) | Post-emergence herbicidal activity, A. retroflexus (grade) (Amaranthus retroflexus; dosage 5 g/mu) | Post-emergence herbicidal activity, A. retroflexus (grade) (Amaranthus retroflexus; dosage 10 g/mu) | Post-emergence herbicidal activity, S. viridis (grade) (Setaria viridis; dosage 2.5 g/mu) | Post-emergence herbicidal activity, S. viridis (grade) (Setaria viridis; dosage 5 g/mu) | Post-emergence herbicidal activity, S. viridis (grade) (Setaria viridis; dosage 10 g/mu) | Post-emergence herbicidal activity, A. theophrasti (grade) (Abutilon theophrasti; dosage 2.5 g/mu) | Post-emergence herbicidal activity, A. theophrasti (grade) (Abutilon theophrasti; dosage 5 g/mu) | Post-emergence herbicidal activity, A. theophrasti (grade) (Abutilon theophrasti; dosage 10 g/mu) | Post-emergence herbicidal activity, Trifoliumre pensL. (grade) (Trifoliumre pensL.; dosage 2.5 g/mu) | Post-emergence herbicidal activity, Trifoliumre pensL. (grade) (Trifoliumre pensL.; dosage 5 g/mu) | Post-emergence herbicidal activity, Trifoliumre pensL. (grade) (Trifoliumre pensL.; dosage 10 g/mu) | melting point [°C]
1 | Cc1ccc(Br)cc1-c1noc(COc2cc(N3C(=O)C4=C(CCCC4)C3=O)c(F)cc2Cl)n1 [Compound A1, 2-(5-((3-(5-bromo-2-tolyl)-1,2,4-oxadiazole-5-yl)methoxy)-4-chloro-2-fluorophenyl)-4,5,6,7-tetrahydro-1H-isoindole-1,3(2H)-dione] | 1 (Grade 1: the growth control rate is greater than or equal to 5% and less than 20%) | 2 (Grade 2: the growth control rate is greater than or equal to 20% and less than 40%) | 3 (Grade 3: the growth control rate is greater than or equal to 40% and less than 60%) | 4 (Grade 4: the growth control rate is greater than or equal to 60% and less than 85%) | 5 (Grade 5: the growth control rate is greater than or equal to 85%) | 5 (Grade 5: the growth control rate is greater than or equal to 85%) | 5 (Grade 5: the growth control rate is greater than or equal to 85%) | 5 (Grade 5: the growth control rate is greater than or equal to 85%) | 5 (Grade 5: the growth control rate is greater than or equal to 85%) | 2 (Grade 2: the growth control rate is greater than or equal to 20% and less than 40%) | 3 (Grade 3: the growth control rate is greater than or equal to 40% and less than 60%) | 4 (Grade 4: the growth control rate is greater than or equal to 60% and less than 85%) | 5 (Grade 5: the growth control rate is greater than or equal to 85%) | 5 (Grade 5: the growth control rate is greater than or equal to 85%) | 5 (Grade 5: the growth control rate is greater than or equal to 85%) | 4 (Grade 4: the growth control rate is greater than or equal to 60% and less than 85%) | 5 (Grade 5: the growth control rate is greater than or equal to 85%) | 5 (Grade 5: the growth control rate is greater than or equal to 85%) | 101 to 105
2 | Cc1ccccc1-c1noc(COc2cc(N3C(=O)C4=C(CCCC4)C3=O)c(F)cc2Cl)n1 [Compound A2, 2-(4-chloro-2-fluoro-5-((3-(2-tolyl)-1,2,4-oxadiazole-5-yl)methoxy)phenyl)-4,5,6,7-tetrahydro-1H-isoindole-1,3(2H)-dione] | 1 (Grade 1: the growth control rate is greater than or equal to 5% and less than 20%) | 2 (Grade 2: the growth control rate is greater than or equal to 20% and less than 40%) | 3 (Grade 3: the growth control rate is greater than or equal to 40% and less than 60%) | 4 (Grade 4: the growth control rate is greater than or equal to 60% and less than 85%) | 5 (Grade 5: the growth control rate is greater than or equal to 85%) | 5 (Grade 5: the growth control rate is greater than or equal to 85%) | 5 (Grade 5: the growth control rate is greater than or equal to 85%) | 5 (Grade 5: the growth control rate is greater than or equal to 85%) | 5 (Grade 5: the growth control rate is greater than or equal to 85%) | 2 (Grade 2: the growth control rate is greater than or equal to 20% and less than 40%) | 3 (Grade 3: the growth control rate is greater than or equal to 40% and less than 60%) | 4 (Grade 4: the growth control rate is greater than or equal to 60% and less than 85%) | 5 (Grade 5: the growth control rate is greater than or equal to 85%) | 5 (Grade 5: the growth control rate is greater than or equal to 85%) | 5 (Grade 5: the growth control rate is greater than or equal to 85%) | 4 (Grade 4: the growth control rate is greater than or equal to 60% and less than 85%) | 5 (Grade 5: the growth control rate is greater than or equal to 85%) | 5 (Grade 5: the growth control rate is greater than or equal to 85%) | 161 to 167
